Assay results reported in patent US20260373248A1, “DEGRADABLE PEPTOIDS” (Medici Therapeutics, Inc., priority 2023, published 2026).
Non-standard residues stand in square brackets, D forms with d. Residues, ends and D or L forms follow the SMILES beside them. *: point of attachment. Gly(N-(3-decanoyloxypropyl)) = CCCCCCCCCC(=O)OCCCNCC(=O)O; N(3-lauroyloxypropyl)Gly = CCCCCCCCCCCC(=O)OCCCNCC(=O)O; N(3-imidazol-1-ylpropyl)Gly = O=C(O)CNCCCn1ccnc1; Gly(N-3-morpholinopropyl) = O=C(O)CNCCCN1CCOCC1; N(2-ethylhexyl)Gly = CCCCC(CC)CNCC(=O)O; Gly(N-dodecyl) = CCCCCCCCCCCCNCC(=O)O; NDecylGly = CCCCCCCCCCNCC(=O)O; NHexGly = CCCCCCNCC(=O)O; For = O=C*

Key:
mRNA = mRNA encapsulation (modified Quant-iT RiboGreen assay); format: physicochemical; details: RiboGreen, without vs with Triton X-100
Protocol: The mRNA concentration and the percentage of encapsulated mRNA were determined using fluorescent-based Quant-iT RiboGreen RNA Reagent Kit (Life Technologies, Waltham, MA) as described previously. To determine the mRNA concentration, PNPs was incubated with […] for 10 min to release entrapped mRNA, followed by addition of RiboGreen RNA reagent. The fluorescence intensity of mRNA-RiboGreen reagent complex (excitation at 485 nm and emission at 530 nm) was detected using a microplate reader. The ratio of fluorescence without and with Triton X-100 were used to calculate the percentage of encapsulated mRNA.
(§1) Degradable peptoids described herein were formulated as various formulations described in Table 3 according to the procedure described in Example 2. Particle size was characterized as described in Example 2, and […] encapsulation of mRNA was determined as described in Example 3.

hEPO = experiment: Quantification of hEPO in serum after IV injection of mRNA (Human EPO ELISA); format: in vivo; details: Balb/c mice, 2.5 μg mRNA IV, serum after 6 hours
Protocol: Balb/c mice were treated with 2.5 μg of mRNA coding for human erythropoiten via IV injection according to a similar method as in Example 4. hEPO protein in the serum was quantified after 6 hours using the Human EPO ELISA Kit from Invitrogen (catalog #BMS2035-2). Wash buffer (PBS with 1% tween 20) and assay buffer (PBS with 1% tween 20, 10% BSA) were prepared from a 20× concentrate with milli-Q water. Serum samples were diluted with PBS according to expected EPO concentration, with a 50× dilution for low expression samples and up to a 30,000× dilution for samples expected to have high expression. Microwell strips were washed in a plate washer with wash buffer and tapped on an absorbent pad to remove excess buffer. 100 μL of sample diluent were added to each well that will be used for the standard curve. 50 μL of sample diluent was added to each sample well.
The standard curve was prepared by reconstituting the human erythropoietin standard by adding the volume of water listed on the vial label. Standard was swirled gently and allowed to reconstitute for 10 minutes prior to use, then 100 μL is added to standard wells and mixed well. 100 μL from standard wells were then transferred to sample wells and mixed well. This was repeated 5 times to produce 2 columns of standard dilutions from 100 to 1.6 mIU/mL. 100 μL was discarded from the last microwells. The final 2 wells contained 100 μL of sample diluent and served as a blank. An external standard was also included to facilitate a mIU/mL conversion to ng/mL. The same serial dilution method was repeated starting with the external standard at 6.25 ng/mL. Once the standards were added, 50 μL of each sample was added in duplicate to the sample wells. Next, the biotin-conjugate was prepared by diluting 1:100 in assay buffer. 50 μL of biotin-conjugate was added to all wells and the plate was covered with a plate seal and shaken at room temperature for 1 hour. During the last few minutes of shaking, streptavidin-HRP was prepared by diluting 1:100 in assay buffer. The plate was washed on a plate washer and tapped on an absorbent pad to remove remaining wash buffer.
100 μL of the diluted streptavidin-HRP was added to each well and the plate was sealed and shaken for 15 minutes at room temperature. After 15 minutes, the plate seal was removed and the plate was washed on a plate washer and remaining wash buffer tapped out on an absorbent pad. 100 μL of TMB substrate was added to all wells and the plate was incubated for 10 minutes at room temperature out of direct light. Color development was checked every few minutes and the assay was stopped when the highest standard was dark blue. The reaction was stopped by pipetting 100 μL of stop solution into each well. Immediately after stop solution was added, the plate was gently tapped to ensure the solution was mixed. Absorbance was then read at 450 nm for each well. A standard curve was plotted for both the kit-provided standards (mIU/mL) and the external standard (ng/mL) and fit using Prism. Sample absorbances that fell within the standard curve were interpolated and adjusted for dilution (including a 2× assay dilution). Samples that were not within the standard curve were repeated at an adjusted dilution.

luciferase = experiment: Luciferase expression after local (intramuscular or subcutaneous) administration of mRNA; format: in vivo; details: mRNA 0.01 mpk, 6 hours; for IM Flux: intramuscular; for SC Flux: subcutaneous
Protocol: (§2) All animal studies were conducted under accreditation by the California State Department of Public Health and under supervision of IACUC and Veterinarian Supervision. For imaging studies, female Balb/c mice (6-8 weeks old) were obtained and acclimatized for a minimum of 3 days prior to experiments. The animals were maintained on a 12 hour light cycle in a temperature and humidity controlled room. A daily health check was performed as well as food and water check. For dosing, mice were injected with 2.5 ug fLuc mRNA-containing Nutshells intravenously in 100 μL total injection value. At 6 hours post-injection, mice were anesthetized with isoflurane, injected IP with 30 mg/mL D-luciferin at a dose of 10 μL per gram bodyweight intraperitoneally. Imaging was done 10 minutes post D-luciferin injection using an IVIS Spectrum Imaging System (Caliper Life Sciences). Immediately after in vivo imaging, mice were terminally bled by cardiac puncture and euthanized. The organs of interest were harvested, placed in black 24-well plates, and imaged. Living Image software (Perkin Elmer) was used to quantify the total photon flux in regions of interest.
Aminolipidated peptoids were also effective for local administration of mRNA through subcutaneous (S.C.) or intramuscular (I.M.) routes of administration. For these examples, mRNA was administered at a dose of 0.1 mpk for intratomoral, or 0.01 mpk for subcutaneous and intramuscular administration, and the resulting bioluminescence quantified after 6 hours according to a similar procedure as described in Example 4.

firefly luciferase = experiment: In vivo firefly luciferase expression after intravenous injection of fLuc mRNA delivery vehicles (IVIS imaging); set-up: species or system female Balb/c mice; details: mice, 2.5 ug fLuc mRNA intravenously, 6 hours post-injection
Protocol: as §2
Luciferase expression in these formulations was also determined as described in Example 4.

[1] = Delivery vehicle size and polydispersity by dynamic light scattering; format: physicochemical; details: DLS in PBS; peptoid:DSPC:Cholesterol:DMG-PEG2000 weight ratio 20:1.79:7.16:1.84, mRNA
Protocol: Delivery vehicles were formulated by rapid microfluidic mixing using a high throughput microfluidic system. Briefly, ethanol solutions containing peptoid, DSPC, Cholesterol, DMG-PEG2000 at weight ratio of 20:1.79:7.16:1.84, were mixed with 10 mM sodium citrate buffer (pH 5.0) containing synthesized mRNA at a ratio of 1:3 by volume. Peptoid based LNPs were subsequently dialyzed against 1-2 liters of tris-sucrose buffer (TS7, pH 7.4) overnight at 4 °C. Delivery vehicle size and polydispersity (PDI) was measured by dynamic light scattering in PBS.
as §1

[2] = Peptoid quantity remaining in liver by HPLC-TOF mass spectrometry; format: in vivo; details: liver homogenate
Protocol: Peptoid quantity in liver was determined via high-performance liquid chromatography coupled with time-of-flight mass spectrometer (HPLC-TOF). The entire liver was weighed, and then two sections were isolated using a provided biopsy punch for liver homogenization. Liver homogenate sample was prepared by resuspending 20 mg liver tissue in 400 μL extraction solvent (IPA/MeOH=8/2) containing an internal standard (400 pg/μL) followed by bead homogenization (45 sec per cycle for 3-4 cycles). Homogenized samples were centrifuged at 12,000 rpm for 8 min at 6 °C. The resulting supernatant was collected and stored at −20 °C for further LC analysis. 5 μL of the resulting supernatant sample from solid or liquid tissue was injected into a BEH C8 column on an Agilent 1290 Infinity II liquid chromatograph coupled with an Agilent 6230 LC-TOF system. Concentrations of peptoids were determined by a linear calibration curve (linear range:0.2-50 μg/g for solid tissue). Standard calibration curve solutions were prepared by spiking untreated liver followed by homogenization and centrifugation.

Row | SMILES | mean percent encapsulation of RNA (mRNA) [%] | PDI [1] | Particle Size [1] [nm] | % of injected dose remaining in liver [2] [%] | hEPO (hEPO) [ng/mL] | IM Flux (luciferase) [p/s] | SC Flux (luciferase) [p/s] | Total Flux (firefly luciferase) [p/s]
1 | CCCCCCCCCCCC(=O)OCCCN(CC(=O)N(CC(=O)N(CCCCCC)CC(=O)N(CCCOC(=O)CCCCCCCCCCC)CC(=O)N(CC(=O)N(CCCCCC)CC(N)=O)CC(CC)CCCC)CC(CC)CCCC)C(=O)CN(C=O)CCCN1CCOCC1 (stereo not drawn) [Compound 70] (For-[Gly(N-3-morpholinopropyl)][N(3-lauroyloxypropyl)Gly][N(2-ethylhexyl)Gly][NHexGly][N(3-lauroyloxypropyl)Gly][N(2-ethylhexyl)Gly][NHexGly]-NH2) | 77.2 | 0.082 | 101.3 | 8.06 | 201 | 4.46E+06 | 2.02E+08 | 1.04E+09
2 | CCCCCCCCCCCC(=O)OCCCN(C=O)CC(=O)N(CCCOC(=O)CCCCCCCCCCC)CC(=O)N(CC(=O)N(CCCN1CCOCC1)CC(=O)N(CCCOC(=O)CCCCCCCCCCC)CC(=O)N(CCCOC(=O)CCCCCCCCCCC)CC(=O)N(CC(N)=O)CC(CC)CCCC)CC(CC)CCCC (stereo not drawn) [Compound 81] (For-[N(3-lauroyloxypropyl)Gly][N(3-lauroyloxypropyl)Gly][N(2-ethylhexyl)Gly][Gly(N-3-morpholinopropyl)][N(3-lauroyloxypropyl)Gly][N(3-lauroyloxypropyl)Gly][N(2-ethylhexyl)Gly]-NH2) |  |  |  | 6.17 | 52 | 2.11E+08 | 6.97E+07 | 1.89E+08
3 | CCCCCCCCCCCC(=O)OCCCN(CC(=O)N(CCCOC(=O)CCCCCCCCCCC)CC(=O)N(CCCCCC)CC(=O)N(CCCOC(=O)CCCCCCCCCCC)CC(=O)N(CCCOC(=O)CCCCCCCCCCC)CC(=O)N(CCCCCC)CC(N)=O)C(=O)CNCCCn1ccnc1 [Compound 73] (H-[N(3-imidazol-1-ylpropyl)Gly][N(3-lauroyloxypropyl)Gly][N(3-lauroyloxypropyl)Gly][NHexGly][N(3-lauroyloxypropyl)Gly][N(3-lauroyloxypropyl)Gly][NHexGly]-NH2) | 66.2 | 0.289 | 111.2 | 10.58 | 27.8 | 5.36E+07 | 6.38E+07 | 
4 | CCCCCCCCCCCC(=O)OCCCN(CC(=O)N(CCCOC(=O)CCCCCCCCCCC)CC(=O)N(CC(=O)N(CCCOC(=O)CCCCCCCCCCC)CC(=O)N(CCCOC(=O)CCCCCCCCCCC)CC(=O)N(CC(N)=O)CC(CC)CCCC)CC(CC)CCCC)C(=O)CNCCCn1ccnc1 (stereo not drawn) [Compound 68] (H-[N(3-imidazol-1-ylpropyl)Gly][N(3-lauroyloxypropyl)Gly][N(3-lauroyloxypropyl)Gly][N(2-ethylhexyl)Gly][N(3-lauroyloxypropyl)Gly][N(3-lauroyloxypropyl)Gly][N(2-ethylhexyl)Gly]-NH2) | 79.7 | 0.178 | 87.2 |  | 72.6 | 5.10E+06 | 3.39E+08 | 4.20E+08
5 | CCCCCCCCCCCC(=O)OCCCN(CC(=O)N(CCCOC(=O)CCCCCCCCCCC)CC(=O)N(CCCCCC)CC(=O)N(CCCOC(=O)CCCCCCCCCCC)CC(=O)N(CCCOC(=O)CCCCCCCCCCC)CC(=O)N(CCCCCC)CC(N)=O)C(=O)CN(C=O)CCCN1CCOCC1 [Compound 71] (For-[Gly(N-3-morpholinopropyl)][N(3-lauroyloxypropyl)Gly][N(3-lauroyloxypropyl)Gly][NHexGly][N(3-lauroyloxypropyl)Gly][N(3-lauroyloxypropyl)Gly][NHexGly]-NH2) | 13.1 | 0.238 | 86.9 |  | 38.1 | 3.61E+08 | 9.18E+07 | 4.43E+08

The next lines start with results.

Row | mean percent encapsulation of RNA (mRNA) [%] | PDI [1] | Particle Size [1] [nm] | % of injected dose remaining in liver [2] [%] | SMILES | hEPO (hEPO) [ng/mL] | IM Flux (luciferase) [p/s] | SC Flux (luciferase) [p/s] | Total Flux (firefly luciferase) [p/s]
6 | 0.0 | 0.102 | 81.1 | 40.01 | CCCCCCCCCCCCN(C=O)CC(=O)N(CCCOC(=O)CCCCCCCCCCC)CC(=O)N(CC(=O)N(CCCn1ccnc1)CC(=O)N(CC(=O)N(CCCOC(=O)CCCCCCCCCCC)CC(=O)N(CCCCCCCCCCCC)CC(N)=O)CC(CC)CCCC)CC(CC)CCCC (stereo not drawn) [Compound 85] (For-[Gly(N-dodecyl)][N(3-lauroyloxypropyl)Gly][N(2-ethylhexyl)Gly][N(3-imidazol-1-ylpropyl)Gly][N(2-ethylhexyl)Gly][N(3-lauroyloxypropyl)Gly][Gly(N-dodecyl)]-NH2) | 26.3 | 5.99E+07 | 4.21E+07 | 
7 | 49.8 | 0.156 | 78.4 |  | CCCCCCCCCCN(C=O)CC(=O)N(CCCOC(=O)CCCCCCCCC)CC(=O)N(CC(=O)N(CCCN1CCOCC1)CC(=O)N(CC(=O)N(CCCOC(=O)CCCCCCCCC)CC(=O)N(CCCCCCCCCC)CC(N)=O)CC(CC)CCCC)CC(CC)CCCC (stereo not drawn) [Compound 117] (For-[NDecylGly][Gly(N-(3-decanoyloxypropyl))][N(2-ethylhexyl)Gly][Gly(N-3-morpholinopropyl)][N(2-ethylhexyl)Gly][Gly(N-(3-decanoyloxypropyl))][NDecylGly]-NH2) | 685 | 2.10E+08 | 6.43E+08 | 5.14E+09
